In ChEMBL document CHEMBL1201862, “PubChem BioAssay data set” (2004):
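1) Cells in 96-well plates. 2) Compound, 48 h, 5 concentrations. 3) Linear interpolation between surrounding doses. 4) Unreached endpoint = highest concentration. Here, GI50 denotes the concentration required for 50% inhibition of growth.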 Activity calls are given as the source filed them. Rule as the data show it: active = GI50 up to about 1.1 µM and inactive = higher.

Tests used:
Test in all cases: growth of human tumour cells (NCI), 48 h
MOLT-4 = tested on: MOLT-4
SF-539 = tested on: SF-539
TK-10 = tested on: TK-10
OVCAR-8 = tested on: OVCAR-8
RXF 393 = tested on: RXF 393
EKVX = tested on: EKVX
DMS-273 = tested on: DMS-273
NCI-H522 = tested on: NCI-H522
Malme-3M = tested on: Malme-3M
OVCAR-4 = tested on: OVCAR-4
KM12 = tested on: KM12
SR = tested on: SR
OVCAR-3 = tested on: OVCAR-3
786-0 = tested on: 786-0
HCT-116 = tested on: HCT-116
UACC-62 = tested on: UACC-62
K562 = tested on: K562
COLO 205 = tested on: COLO 205
DLD-1 = tested on: DLD-1
IGROV-1 = tested on: IGROV-1
SN12C = tested on: SN12C
HL-60 = tested on: HL-60
A549 = tested on: A549
M19-MEL = tested on: M19-MEL
UO-31 = tested on: UO-31
HOP-62 = tested on: HOP-62
LXFL 529 = tested on: LXFL 529
SNB-75 = tested on: SNB-75
SW-620 = tested on: SW-620
U-251 = tested on: U-251
NCI-H23 = tested on: NCI-H23
HOP-18 = tested on: HOP-18
SK-MEL-5 = tested on: SK-MEL-5
SK-MEL-2 = tested on: SK-MEL-2
UACC-257 = tested on: UACC-257
ACHN = tested on: ACHN
HT-29 = tested on: HT-29
KM-20L2 = tested on: KM-20L2
DMS-114 = tested on: DMS-114
SF-268 = tested on: SF-268
LOX IMVI = tested on: LOX IMVI
SF-295 = tested on: SF-295
M14 = tested on: M14
SNB-19 = tested on: SNB-19
SK-OV-3 = tested on: SK-OV-3
SK-MEL-28 = tested on: SK-MEL-28
HOP-92 = tested on: HOP-92
OVCAR-5 = tested on: OVCAR-5
RPMI-8226 = tested on: RPMI-8226
A498 = tested on: A498
CCRF-CEM = tested on: CCRF-CEM
NCI-H226 = tested on: NCI-H226
NCI-H460 = tested on: NCI-H460
HCC 2998 = tested on: HCC 2998
XF498 = tested on: XF498
CAKI-1 = tested on: CAKI-1
HCT-15 = tested on: HCT-15
SNB-78 = tested on: SNB-78

NCCCC1NC(=O)/C(=C(O)/C=C/C2CCC[C@@H]2CC2SCCS2)C1=O (stereo partly specified)
GI50 (MOLT-4): 43.4 µM (inactive)
GI50 (SF-539): > 100 µM (inactive)
GI50 (TK-10): > 100 µM (inactive)
GI50 (OVCAR-8): > 100 µM (inactive)
GI50 (RXF 393): > 100 µM (inactive)
GI50 (EKVX): > 100 µM (inactive)
GI50 (DMS-273): 74.8 µM (inactive)
GI50 (NCI-H522): 29 µM (inactive)
GI50 (Malme-3M): > 100 µM (inactive)
GI50 (OVCAR-4): > 100 µM (inactive)
GI50 (KM12): > 100 µM (inactive)
GI50 (SR): 58.5 µM (inactive)
GI50 (OVCAR-3): > 100 µM (inactive)
GI50 (786-0): > 100 µM (inactive)
GI50 (HCT-116): > 100 µM (inactive)
GI50 (UACC-62): > 100 µM (inactive)
GI50 (K562): 31.2 µM (inactive)
GI50 (COLO 205): 37.2 µM (inactive)
GI50 (DLD-1): > 100 µM (inactive)
GI50 (IGROV-1): > 100 µM (inactive)
GI50 (SN12C): > 100 µM (inactive)
GI50 (HL-60): 23.3 µM (inactive)
GI50 (A549): > 100 µM (inactive)
GI50 (M19-MEL): > 100 µM (inactive)
GI50 (UO-31): > 100 µM (inactive)
GI50 (HOP-62): > 100 µM (inactive)
GI50 (LXFL 529): 75 µM (inactive)
GI50 (SNB-75): > 100 µM (inactive)
GI50 (SW-620): 57 µM (inactive)
GI50 (U-251): > 100 µM (inactive)
GI50 (NCI-H23): > 100 µM (inactive)
GI50 (HOP-18): 82.6 µM (inactive)
GI50 (SK-MEL-5): > 100 µM (inactive)
GI50 (SK-MEL-2): > 100 µM (inactive)
GI50 (UACC-257): 76.9 µM (inactive)
GI50 (ACHN): > 100 µM (inactive)
GI50 (HT-29): > 100 µM (inactive)
GI50 (KM-20L2): > 100 µM (inactive)
GI50 (DMS-114): 86.3 µM (inactive)
GI50 (SF-268): > 100 µM (inactive)
GI50 (LOX IMVI): > 100 µM (inactive)
GI50 (SF-295): > 100 µM (inactive)
GI50 (M14): > 100 µM (inactive)
GI50 (SNB-19): > 100 µM (inactive)
GI50 (SK-OV-3): > 100 µM (inactive)
GI50 (SK-MEL-28): > 100 µM (inactive)
GI50 (HOP-92): 38.3 µM (inactive)
GI50 (OVCAR-5): > 100 µM (inactive)
GI50 (RPMI-8226): > 100 µM (inactive)
GI50 (A498): > 100 µM (inactive)
GI50 (CCRF-CEM): 54.1 µM (inactive)
GI50 (NCI-H226): 71.8 µM (inactive)
GI50 (NCI-H460): > 100 µM (inactive)
GI50 (HCC 2998): > 100 µM (inactive)

ONc1ncnc2[nH]cnc12
GI50 (MOLT-4): > 100 µM (inactive)
GI50 (SF-539): > 100 µM (inactive)
GI50 (TK-10): > 100 µM (inactive)
GI50 (OVCAR-8): > 100 µM (inactive)
GI50 (DMS-273): > 100 µM (inactive)
GI50 (XF498): > 100 µM (inactive)
GI50 (NCI-H522): > 100 µM (inactive)
GI50 (Malme-3M): > 100 µM (inactive)
GI50 (OVCAR-4): > 100 µM (inactive)
GI50 (KM12): > 100 µM (inactive)
GI50 (SR): > 100 µM (inactive)
GI50 (OVCAR-3): > 100 µM (inactive)
GI50 (786-0): > 100 µM (inactive)
GI50 (HCT-116): > 100 µM (inactive)
GI50 (UACC-62): > 100 µM (inactive)
GI50 (K562): 64.4 µM (inactive)
GI50 (CAKI-1): > 100 µM (inactive)
GI50 (COLO 205): > 100 µM (inactive)
GI50 (HCT-15): > 100 µM
GI50 (DLD-1): > 100 µM (inactive)
GI50 (IGROV-1): > 100 µM (inactive)
GI50 (HL-60): 14.7 µM (inactive)
GI50 (A549): > 100 µM (inactive)
GI50 (M19-MEL): > 100 µM (inactive)
GI50 (UO-31): > 100 µM (inactive)
GI50 (HOP-62): > 100 µM (inactive)
GI50 (LXFL 529): > 100 µM (inactive)
GI50 (SNB-75): > 100 µM (inactive)
GI50 (SW-620): > 100 µM (inactive)
GI50 (U-251): > 100 µM (inactive)
GI50 (NCI-H23): > 100 µM (inactive)
GI50 (SK-MEL-5): > 100 µM (inactive)
GI50 (SK-MEL-2): > 100 µM (inactive)
GI50 (UACC-257): > 100 µM (inactive)
GI50 (ACHN): > 100 µM (inactive)
GI50 (HT-29): > 100 µM (inactive)
GI50 (KM-20L2): > 100 µM (inactive)
GI50 (DMS-114): > 100 µM (inactive)
GI50 (SF-268): > 100 µM (inactive)
GI50 (SF-295): > 100 µM (inactive)
GI50 (M14): > 100 µM (inactive)
GI50 (SNB-19): > 100 µM (inactive)
GI50 (SK-MEL-28): > 100 µM (inactive)
GI50 (HOP-92): > 100 µM (inactive)
GI50 (OVCAR-5): > 100 µM (inactive)
GI50 (RPMI-8226): 58.2 µM (inactive)
GI50 (CCRF-CEM): > 100 µM (inactive)
GI50 (NCI-H226): > 100 µM (inactive)
GI50 (NCI-H460): > 100 µM (inactive)
GI50 (HCC 2998): > 100 µM (inactive)

Cc1cccc2c1N(C(=O)/C=C\C(=O)O)C(c1c(C)[nH]c3ccccc13)C2 (stereo unspecified)
GI50 (MOLT-4): 31.2 µM (inactive)
GI50 (TK-10): 73.5 µM (inactive)
GI50 (OVCAR-8): 55.6 µM (inactive)
GI50 (EKVX): > 100 µM (inactive)
GI50 (XF498): 21.9 µM (inactive)
GI50 (NCI-H522): 18.5 µM (inactive)
GI50 (Malme-3M): 20.1 µM (inactive)
GI50 (OVCAR-4): 57.7 µM (inactive)
GI50 (KM12): 33.5 µM (inactive)
GI50 (SR): 31 µM (inactive)
GI50 (OVCAR-3): > 10 µM (inactive)
GI50 (786-0): 40.8 µM (inactive)
GI50 (HCT-116): 23.2 µM (inactive)
GI50 (UACC-62): 18.9 µM (inactive)
GI50 (K562): 36.6 µM (inactive)
GI50 (CAKI-1): 30.3 µM (inactive)
GI50 (COLO 205): > 10 µM (inactive)
GI50 (DLD-1): 33.6 µM (inactive)
GI50 (IGROV-1): > 10 µM (inactive)
GI50 (SN12C): 40.7 µM (inactive)
GI50 (HL-60): 20.7 µM (inactive)
GI50 (A549): > 100 µM (inactive)
GI50 (M19-MEL): 22.7 µM (inactive)
GI50 (UO-31): > 100 µM (inactive)
GI50 (HOP-62): > 100 µM (inactive)
GI50 (LXFL 529): 15.3 µM (inactive)
GI50 (SNB-75): > 10 µM (inactive)
GI50 (SW-620): 28.4 µM (inactive)
GI50 (U-251): > 10 µM (inactive)
GI50 (NCI-H23): 43.8 µM (inactive)
GI50 (SK-MEL-5): 18.2 µM (inactive)
GI50 (SK-MEL-2): 19.9 µM (inactive)
GI50 (UACC-257): 33.8 µM (inactive)
GI50 (ACHN): 84.3 µM (inactive)
GI50 (HT-29): > 100 µM (inactive)
GI50 (KM-20L2): > 100 µM (inactive)
GI50 (DMS-114): 19.9 µM (inactive)
GI50 (SF-268): > 10 µM (inactive)
GI50 (SF-295): 44.8 µM (inactive)
GI50 (M14): 55.1 µM (inactive)
GI50 (SNB-19): 36.2 µM (inactive)
GI50 (SK-OV-3): 30.8 µM (inactive)
GI50 (SK-MEL-28): 21.9 µM (inactive)
GI50 (SNB-78): 31.2 µM (inactive)
GI50 (HOP-92): 22.5 µM (inactive)
GI50 (OVCAR-5): > 100 µM (inactive)
GI50 (RPMI-8226): 28.4 µM (inactive)
GI50 (A498): > 100 µM (inactive)
GI50 (CCRF-CEM): 34.8 µM (inactive)
GI50 (NCI-H226): 49.3 µM (inactive)
GI50 (NCI-H460): > 100 µM (inactive)
GI50 (HCC 2998): 18.5 µM (inactive)
